# Data as given in patent publication US8338151B2, “Method for creating intracellular artificial nanostructures in situ” (The Hong Kong University of Science and Technology, priority 2005, dated 2012).
# Experiment: Minimum gelation concentration / hydrogelation ability
# Format: physicochemical
# Text: In this embodiment, precursors bearing the general formula C10H7CH2C(O)—ZZ (where Z is the residue of an amino acid) was used.
# For this precursor, it is possible to use the enzyme kinase/phosphatase pair as an enzyme switch because (i) FF is prone to self-assembly (ii) Nap-FF gels water effectively (at 0.8 wt %), and (iii) the residue of Glu-Tyr (EY) accepts phosphorylation in the presence of a tyrosine kinase and the phosphorylation process can be reversed by phosphatase.
# One of the motivations to use naphthalene (Nap) rather than N-(fluorenyl-methoxycarbonyl) (FMOC) is that Nap should be more biocompatible, as evidenced by several clinical drugs consisting of a Nap motif (i. e., propranolol, naphazoline, nafronyl). The glycine (G) was used to connect Nap-FF with EY because glycine is the simplest amino acid. Unlike other pentapeptides, FFGEY is not a known epitope of any protein, but it carries the basic structural requirement to serve as the substrate of the tyrosine kinase. After obtaining precursor IIIa through solid-phase synthesis, the hydrogelation ability of IIIa was tested. Via a slight adjustment of pH (from 7.8 to 7.5), IIIa forms a transparent hydrogel in water at 0.6 wt %). The successful hydrogelation of IIIa implies that Nap-FF also may act as a useful motif to conjugate with other amino acid residues to construct hydrogelators. […]
smiles,measurement,setting,value
O=C(Cc1ccc2ccccc2c1)N[C@@H](Cc1ccccc1)C(=O)N[C@@H](Cc1ccccc1)C(=O)O [C10H7CH2C(O)-L-Phe-L-Phe],minimum gelation concentration (mgc),,ca. 0.4%
same,concentration at which a hydrogel forms in water,water,0.8 wt %
